Ends that are not written are not given here. PEG = not defined here
Tests used:
Type in all cases: cell-based
[1] = tested on: human non-small cell lung cancer cells (A549); assay: scratch assay, migration of A549 cells; conditions: A549, 10 μM, 48 hours; control group 75.31 ± 8.19
How it was run: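 Confluent A549 monolayers in 24-well plates were scratched, washed with PBS, then cultured 48 h in 2% FBS medium with peptide at 10 μM or PBS control, triplicate wells. Scratch width measured from images; migration rate (%) = (original − current width)/original width × 100.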

[2] = tested on: human lung cancer cells (95D); assay: scratch assay, migration of 95D cells; conditions: 10 μM, 48 hours, control group 55.3 ± 3.19
How it was run: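 Confluent 95D monolayers were scratched, washed with PBS and cultured 48 h in 2% FBS medium containing peptide (10 μM) or PBS control, in triplicate wells. Scratch width was measured on images; migration rate (%) = (original width − current width)/original width × 100.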

[3] = tested on: human lung squamous carcinoma cells (NCI-H226); assay: scratch assay, migration of NCI-H226 cells; conditions: NCI-H226, 10 μM, 48 hours; control group 65.31 ± 3.19
How it was run: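 A straight scratch was made in confluent NCI-H226 monolayers (1-2×10^5 cells/well). Cells were then kept 48 h in 2% FBS medium with 10 μM polypeptide or PBS control, triplicate wells. Migration rate (%) = (original − current scratch width)/original width ×100, from imaged scratch widths.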

[4] = tested on: human pancreatic cancer cells (PANC-1); assay: scratch assay, migration of PANC-1 cells; conditions: PANC-1, 10 μM, 48 hours; control group 66.65 ± 3.37
How it was run: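 PANC-1 monolayers were scratched, then cultured for 48 h with 10 μM test compound in 2% FBS medium, in three parallel wells per group against a PBS control. Migration rate (%) was calculated as (original minus current scratch width) / original width × 100, from imaged wells.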

[5] = tested on: human liver cancer cells (HepG2); assay: scratch assay, migration of HepG2 cells; conditions: HepG2, 10 μM, 48 hours; control group 71.01 ± 6.63
How it was run: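 HepG2 monolayers scratched, then cultured 48 h in 2% FBS medium with test polypeptides at 10 μM versus PBS control, triplicate wells. Migration rate (%) computed from original versus current scratch width in images.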

[6] = tested on: human breast cancer cells (MDA-MB-453); assay: scratch assay, migration of MDA-MB-453 cells; conditions: MDA-MB-453, 10 μM, 48 hours; control group 32.42 ± 2.04
How it was run: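 Confluent MDA-MB-453 monolayers were scratched, then treated with peptide at 10 μM in 2% FBS medium for 48 h, with a PBS control and triplicate wells. Migration rate (%) was taken as (original − current scratch width)/original width ×100 from images.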

[7] = tested on: human breast cancer cells (MDA-MB-231); assay: scratch assay, migration of MDA-MB-231 cells; conditions: MDA-MB-231, 10 μM, 48 hours; control group 36.19 ± 5.15
How it was run: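 MDA-MB-231 monolayers (1-2×10^5 cells/well) were scratched, then kept 48 h in medium with 2% FBS containing polypeptide at 10 μM, with a PBS control, in triplicate wells. Migration rate (%) was taken from scratch width: (original − current)/original ×100.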

[8] = tested on: human breast cancer cells (MCF-7); assay: scratch assay, migration of MCF-7 cells; conditions: MCF-7, 10 μM, 48 hours; control group 30.97 ± 1.79
How it was run: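 MCF-7 monolayers scratched, then cultured 48 hours in 2% FBS medium with test peptide at 10 μM versus PBS control, triplicate wells. Migration rate (%) = (original − current scratch width)/original width × 100, measured from images.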

[9] = tested on: human melanoma cells (A375); assay: scratch assay, migration of A375 cells; conditions: A375, 10 μM, 48 hours; control group 44.03 ± 6.21
How it was run: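 Monolayers scratched, washed with PBS and cultured 48 hours in 2% FBS medium with polypeptides N1-N54 at 10 μM or PBS control, three wells per group. Migration rate (%) = (original − current scratch width)/original width×100, from imaged scratch widths.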

[10] = tested on: human oral epidermoid carcinoma KB cells; assay: scratch assay, migration of KB cells; conditions: 10 μM, 48 hours, control group 54.03 ± 4.21
How it was run: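 Monolayers of KB cells were scratched, washed with PBS, then cultured 48 hours in 2% FBS medium containing test polypeptide (10 μM) or PBS control, in triplicate wells. From images, migration rate (%) = (original − current scratch width)/original width × 100.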

[11] = tested on: human pharyngeal squamous-cell carcinoma cells (Fadu); assay: scratch assay, migration of Fadu cells; conditions: 10 μM, 48 hours, control group 28.76 ± 4.08
How it was run: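 Confluent Fadu monolayers scratched, then cultured 48 h with 10 μM polypeptide in medium with 2% FBS; PBS control, triplicate wells. Migration rate (%) = (original − current scratch width)/original width × 100, from ≥3 images per well.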

[12] = tested on: human colon cancer cells (HCT-116); assay: scratch assay, migration of HCT-116 cells; conditions: HCT-116, 10 μM, 48 hours; control group 47.78 ± 6.07
How it was run: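 Confluent HCT-116 monolayers were scratched, washed and cultured 48 h in 2% FBS medium with peptide at 10 μM versus PBS control, triplicate wells. Migration rate (%) = (original minus current scratch width)/original width × 100, from at least 3 images per well.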

[13] = tested on: human thyroid cancer cells (FRO); assay: scratch assay, migration of FRO cells; conditions: 10 μM, 48 hours, control group 60.34 ± 8.32
How it was run: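 FRO monolayers were scratched, washed, and cultured 48 h in 2% FBS medium with polypeptide derivatives at 10 μM or PBS control, three wells per group. Migration rate (%) = (original − current scratch width)/original width × 100, measured from images.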

[14] = tested on: human prostate cancer cells (22RV1); assay: scratch assay, migration of 22RV1 cells; conditions: 22RV1, 10 μM, 48 hours; control group 25.41 ± 5.01
How it was run: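 22RV1 monolayers (seeded 1-2×10^5 cells/well) were scratched, washed, then given 2% FBS medium with 10 μM polypeptide or PBS, triplicate wells, for 48 h. Migration rate (%) = (original − current scratch width)/original width ×100, from ≥3 images per well.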

Row | Substance | Migration rate (%) (mean ± SD, P) [1] | Migration rate (%) (mean ± SD, P) [2] | Migration rate (%) (mean ± SD, P) [3] | Migration rate (%) (mean ± SD, P) [4] | Migration rate (%) (mean ± SD, P) [5] | Migration rate (%) (mean ± SD, P) [6] | Migration rate (%) (mean ± SD, P) [7] | Migration rate (%) (mean ± SD, P) [8] | Migration rate (%) (mean ± SD, P) [9] | Migration rate (%) (mean ± SD, P) [10] | Migration rate (%) (mean ± SD, P) [11] | Migration rate (%) (mean ± SD, P) [12] | Migration rate (%) (mean ± SD, P) [13] | Migration rate (%) (mean ± SD, P) [14]
1 | N32: SEQ ID NO: 1 with deletion of positions 1-3, addition of one amino acid and PEG modification at the carboxyl terminal (RFLAKENVTQDAEDNC-{PEG}; reading uncertain) | 28.06 ± 8.55,** % | 29.47 ± 3.42,** % | 19.47 ± 6.42,*** % | 15.49 ± 8.35,*** % | 15.49 ± 8.35,*** % | 17.55 ± 3.48,** % | 13.33 ± 3.83,** % | 14.18 ± 2.82,** % | 18.22 ± 3.95,** % | 11.70 ± 2.95,*** % | 14.63 ± 4.96,* % | 8.17 ± 1.07,*** % | 7.83 ± 2.06,*** % | 8.68 ± 1.66,** %
2 | N50: SEQ ID NO: 1 with N18R, addition of 2 amino acid at the carboxyl terminal, PEG modification at the amino terminal ({PEG}-YRVRFLAKENVTQDAEDRCT; reading uncertain) | 57.74 ± 4.39,* % | 31.05 ± 4.32,** % | 33.20 ± 3.59,** % | 14.92 ± 8.62,*** % | 16.03 ± 4.37,*** % | 18.35 ± 3.91,** % | 14.46 ± 5.73,** % | 6.83 ± 4.55,** % | 15.97 ± 2.33,** % | 15.97 ± 2.93,** % | 5.44 ± 1.44,*** % | 17.04 ± 4.96,** % | 11.80 ± 4.15,*** % | 6.20 ± 3.31,** %
3 | N27: SEQ ID NO: 1 with addition of one amino acid at the carboxyl terminal and PEG modification at the carboxyl terminal (YRVRFLAKENVTQDAEDNC-{PEG}; reading uncertain) | 37.20 ± 6.23,** % | 37.20 ± 6.23,* % | 31.19 ± 5.96,*** % | 27.19 ± 7.04,*** % | 39.99 ± 3.19,** % | 21.24 ± 3.73,* % | 9.62 ± 3.01,*** % | 8.40 ± 2.44,** % | 12.52 ± 3.78,*** % | 12.53 ± 3.88,** % | 15.99 ± 3.96,* % | 24.14 ± 3.00,** % | 13.42 ± 3.35,*** % | 14.76 ± 2.79,* %
4 | N18: SEQ ID NO: 1 with addition of one amino acid at the amino terminal and one at the carboxyl terminal (FYRVRFLAKENVTQDAEDNC) | 55.71 ± 4.05,* % | 25.71 ± 4.05,*** % | 48.17 ± 3.85,** % | 13.26 ± 7.39,*** % | 48.73 ± 3.52,** % | 9.97 ± 2.44,*** % | 18.64 ± 6.98,* % | 10.40 ± 2.72,** % | 12.67 ± 1.33,*** % | 12.67 ± 2.33,*** % | 6.29 ± 2.62,*** % | 16.96 ± 4.87,** % | 22.96 ± 5.05% | 6.75 ± 3.22,** %

— US20220280594A1, “APPLICATION OF POLYPEPTIDE OR DERIVATIVE THEREOF” (CHENGDU HUITAI BIOMEDICINE CO., LTD., priority 2019, published 2022)
